Measurements as given in US10519148B2, “Acrylic acid derivative, preparation method and use in medicine thereof” (Zhejiang Hisun Pharmaceutical Co., Ltd., priority 2015, dated 2019).

Key:
[1] = molecular target: T1, recombinant human estrogen receptor ERα ligand binding domain (Homo sapiens, UniProt P03372); experiment: LanthaScreen TR-FRET competition binding assay with estrogen receptor ERα ligand binding domain; details: TR-FRET competition with Fluormone ES2, ERα-LBD (GST); read-out: IC50 (nM) ER Reporter
T1 construct: purchased Invitrogen PV4543
T1 sequence (P03372 311-547 limits assumed): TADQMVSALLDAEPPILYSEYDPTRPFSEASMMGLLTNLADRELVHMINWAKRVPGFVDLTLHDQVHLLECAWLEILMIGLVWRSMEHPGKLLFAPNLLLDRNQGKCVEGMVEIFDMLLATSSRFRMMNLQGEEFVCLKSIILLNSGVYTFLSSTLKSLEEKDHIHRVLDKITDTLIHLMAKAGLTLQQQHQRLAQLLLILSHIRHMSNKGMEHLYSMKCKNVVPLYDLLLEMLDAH
Text: The present invention utilizes the Lantha Screen™ Time-resolved Fluorescence Resonance Energy Transfer (TR-FRET) to assess the ability of the compounds to bind to the isolated ligand domain of estrogen receptor Era in competition assay. The fluorophore (Fluormone ES2, product code P2645) and the recombinant human estrogen receptor ERα ligand binding domain (product code PV4543) using in the TR-FRET were purchased from Invitrogen. The design principle of this assay is as follows: the estrogen receptor ERα-LBD (GST) and the fluorophore-containing ligand form a receptor/fluorophore complex, followed by the addition of terbium (Tb)-labeled anti-GST antibody (product code PV3551), the indirect labeling of the receptor is achieved by the linkage with the GST on the receptor, and the ability of competitive coordination between the test compound and the fluorescent ligand with the receptor is evaluated by detecting the attenuation of the TR-FRET effect between the chromophore (Tb-anti-GST antibody) on the fluorescent label ERα and the fluorescent ligand (Fluormone ES2). We used the following sample preparation and test methods for the test of the synthesized compounds. The instrument we used is Beckman Coulter BioPAPTR FRD microfluidic workstation.
(1) Acoustic dispense 120 nL of the test compound into a black low volume 384 well assay plates;
(2) Preparation of 1×ERα-LBD/Tb-anti-GST antibody complex in ES2 buffer and incubation therein for 20 minutes;
(3) The 1×ES2 was further added to the above ERα-LBD/Tb-anti-GST antibody complex solution before the test;
(4) 12 μL of the ERα-LBD/Tb-anti-GST antibody complex solution prepared in step 3 was added to the wells of the assay plate;
(5) The plates were shielded from light and incubated at room temperature for one hour; (6) At 337 nm excitation light, the emission light at 490 nm and 520 nm was detected by BMG Phera STAR.
The test compounds of a series of concentrations (10 mM, 0.1 mM, 1 μM and 10 nM) prepared on a microplate were transferred to the analytical plate using Labcyte Echo 550. 120 nL of DMSO solution for each test compound was added to each well of the assay plate and tested at 12 different concentrations (100, 29.17, 10.42, 2.083, 1, 0.292, 0.104, 0.02083, 0.01, 0.0029, 0.00104, 0.001 μM). The TR-FRET primitive fluorescence data was used to obtain the fitting curve software such as Origin or Genedata. Half maximal inhibitory concentration IC50 of each compound was used to characterize the competitive binding ability of the test compound with the estrogen receptor ERα. IC50 represents the concentration of the test compound that was calculated when the coordination of the tracer fluorophore (ES2) with the estrogen receptor was reduced by 50%, and the IC50 was determined as shown in Table 3.

ERα = molecular target: T2, ERα (Homo sapiens, UniProt P03372); experiment: ERα down-regulation immunofluorescence assay in MCF-7 cells; type: cell-based; details: immunofluorescence of ERα level, read-out: IC50 (nM) ERα down-degradation
T2 construct: host or cells: MCF-7
T2 sequence (P03372 1-595): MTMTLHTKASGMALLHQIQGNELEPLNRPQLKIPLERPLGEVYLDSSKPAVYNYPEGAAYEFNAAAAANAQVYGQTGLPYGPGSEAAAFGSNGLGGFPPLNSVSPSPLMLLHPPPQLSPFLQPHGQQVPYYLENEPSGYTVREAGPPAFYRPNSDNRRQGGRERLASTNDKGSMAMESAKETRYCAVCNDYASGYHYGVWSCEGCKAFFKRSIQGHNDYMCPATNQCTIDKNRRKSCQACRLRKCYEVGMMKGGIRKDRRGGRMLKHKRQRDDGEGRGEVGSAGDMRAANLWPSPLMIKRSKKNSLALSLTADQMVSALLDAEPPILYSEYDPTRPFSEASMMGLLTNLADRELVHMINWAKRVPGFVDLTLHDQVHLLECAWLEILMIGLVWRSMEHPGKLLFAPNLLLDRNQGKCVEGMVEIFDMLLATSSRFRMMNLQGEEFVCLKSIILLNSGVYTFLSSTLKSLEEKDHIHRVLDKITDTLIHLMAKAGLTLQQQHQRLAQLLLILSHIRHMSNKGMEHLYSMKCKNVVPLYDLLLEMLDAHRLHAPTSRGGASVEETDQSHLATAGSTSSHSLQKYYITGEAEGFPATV
Method: The down-regulation of the preferred compounds of the present invention on the protein level of ERα is evaluated by immunofluorescence assay using human breast cancer cell line MCF-7. MCF-7 cells used in the experiment were revived directly from frozen cells (about 5×10^6). The MCF-7 frozen cell line (Sigma D5921) purchased from Sigma was stored in DMEM medium containing 2 mM […]. 5% (v/v) Charcoal/Dextran-treated bovine serum […] were added to the revived MCF-7 cells and the cell concentration was determined using Coulter Counter.
The cells used for the test were diluted to 3.75×10^4 cells/mL with culture medium and 40 μL/well of the above cell suspension was transferred to 384-well black transparent bottom plates and incubated overnight at 37° C., 5% CO2. 10 mM compound stock solutions were diluted to a series of test concentrations (10 mM, 0.1 mM, 1 μM, 0.01 μM etc.) and dispensed into cell plates. 20 μL of 11.1% (v/v) aqueous formaldehyde solution (phosphate buffered saline) was added to each of the different concentrations of the test compounds and MCF-7 cell culture solution (40 μL), and the final concentration of formaldehyde in the solution was 3.7% (v/v). Cells were fixed at room temperature for 20 minutes, washed twice with 250 μL of PBS/Proclin, and then 40 μL of PBS/Proclin was added and refrigerated at 4° C. The immunostaining of the protein was performed using the automated AutoElisa kit. The PBS/Proclin solution was aspirated from each plate well and then 40 μL of PBS containing 0.5% Tween 20 (v/v) was added for cell permeation. After one hour, the plate was washed with 250 μL of PBS/0.05% Tween 20/Proclin for three times, and 20 μL of ERα rabbit monoclonal antibody (Thermofisher) in PBS/Tween™ 20/3% (w/v) BSA solution (1:1000) was added. The plates were incubated overnight at 4° C., washed three times with 250 μL of PBS/Tween™ 20/Proclin, and then 20 μL of goat anti-rabbit IgG AlexaFluor 594 or goat anti-rabbit IgG AlexaFluor 488 antibody (containing Hoechst stain (1:5000) in PBS/Tween™ 20/3% (w/v) BSA solution was added, and the system was incubated at room temperature for one hour. After the plates were washed three times with 250 μL of PBS/0.05% (v/v) Tween™ 20/Proclin, 20 μL of PBS was added and the paltes were kept in dark place at 4° C. The level of estrogen receptor ERα in MCF-7 cells was calculated through Cellomics Arrayscan detection of fluorescence emission intensity at two emission wave bands at 594 nm (24-hour time point) and 488 nm (5-hour time point). The average fluorescence emission intensity of each cell is positively correlated with the ERα receptor level of the cell. The primitive fluorescence data was used to obtain the fitting curve by software such as Origin or Genedata. Half maximal inhibitory concentration IC50 was used to characterize the down-regulation of estrogen receptor ERα by the test compounds, which is the concentration of the test compound when the fluorescence emission intensity is reduced to 50% of the average maximum fluorescence intensity.

**Q.** How did the IC50 [1] turn out when `C[C@@H]1Cc2c([nH]c3ccccc23)[C@@H](c2c(F)cc(/C=C/C(=O)O)cc2F)N1CC1CCCC1` [Example 3, (E)-3-(4-((1R,3R)-2-(cyclopentylmethyl)-3-methyl-2,3,4,9-tetrahydro-1H-pyrido[3,4-b]indol-1-yl)-3,5-difluorophenyl)acrylic acid] was run?
**A.** Its IC50 is 10 to 250 nM.

**Q.** What about the DC50 (ERα) of the same compound?
**A.** Its DC50 is 10 to 250 nM.

**Q.** `C[C@H]1Cc2c([nH]c3cccc(F)c23)[C@H](c2c(F)cc(/C=C/C(=O)O)cc2F)N1CC1(F)CC1` [Example 13, (E)-3-(3,5-difluoro-4-((1S,3S)-5-fluoro-2-((1-fluorocyclopropyl)methyl)-3-methyl-2,3,4,9-tetrahydro-1H-pyrido[3,4-b]indol-1-yl)phenyl)acrylic acid] was tested. Which IC50 [1] did it give?
**A.** Its IC50 is 250 to 1000 nM.

**Q.** And the DC50 (ERα)?
**A.** The DC50 was 250 to 1000 nM.

**Q.** `C[C@@H]1Cc2c([nH]c3ccccc23)[C@@H](c2c(F)cc(/C=C/C(=O)O)cc2F)N1CC1(F)CCCCC1` [Example 6, (E)-3-(3,5-difluoro-4-((1R,3R)-2-((1-fluorocyclohexyl)methyl)-3-methyl-2,3,4,9-tetrahydro-1H-pyrido[3,4-b]indol-1-yl)phenyl)acrylic acid] was tested. Which IC50 [1] did it give?
**A.** The IC50 was 10 to 250 nM.

**Q.** And the DC50 (ERα)?
**A.** Its DC50 is 10 to 250 nM.

**Q.** Which results are given for `C[C@@H]1Cc2c([nH]c3ccccc23)[C@@H](c2c(F)cc(/C=C/C(=O)O)cc2F)N1CC1COC1` [Example 11, (E)-3-(3,5-difluoro-4-((1R,3R)-3-methyl-2-(oxetane-3-ylmethyl)-2,3,4,9-tetrahydro-1H-pyrido[3,4-b]indol-1-yl)phenyl)acrylic acid]?
**A.** IC50 [1]: 10 to 250 nM; DC50 (ERα): 10 to 250 nM

**Q.** How did the IC50 [1] turn out when `C[C@@H]1Cc2c([nH]c3ccccc23)[C@@H](c2c(F)cc(/C=C/C(=O)O)cc2F)N1CC1CC1` [Example 2, (E)-3-(4-((1R,3R)-2-(cyclopropylmethyl)-3-methyl-2,3,4,9-tetrahydro-1H-pyrido[3,4-b]indol-1-yl)-3,5-difluorophenyl)acrylic acid] was run?
**A.** The IC50 was 0.1 to 10 nM.

**Q.** And the DC50 (ERα)?
**A.** The DC50 was 0.1 to 10 nM.
